Data set [1] concerns untransfected HEK-293 cells. Description: Negative controls of the functional assays: HEK-293 cells without DREADD. Format: cell-based, human. As to the method: BRET assays were performed to detect receptor ligand-induced Gαo1 protein activation. […] Forty-eight hour after transfection cells were harvested, washed and resuspended in phosphate-buffered saline (PBS). Approximately, 200,000 cells/well were distributed in 96-well plates, and 5 µM Coelenterazine H (substrate for luciferase) was added to each well. Five minutes after addition of Coelenterazine H, ligands were added to each well. The fluorescence of the acceptor was quantified (excitation at 500 nm and emission at 540 nm for 1-s recordings) in a PheraStar FSX plate reader (BMG Labtech) to confirm the constant expression levels across experiments. In parallel, the BRET signal from the same batch of cells was determined as the ratio of the light emitted by mVenus (510–540 nm) over that emitted by RLuc (485 nm). Results were calculated for the BRET change (BRET ratio for the corresponding drug minus BRET ratio in the absence of the drug) 5 min after the addition of the ligands.
Intracellular Ca^2+ concentration was monitored using the fluorescent Ca^2+ biosensor GCaMP6f. HEK-293 cells were transfected with 7 µg/dish of the cDNA encoding for hM3Dq (Addgene #89149) or hM4Di (Addgene #89150) and 7 µg/dish of GCaMP6. Forty-eight hours after transfection, cells were harvested, washed, resuspended in Mg^2+-free Locke’s buffer pH 7.4 (154 mM NaCl, 5.6 mM KCl, 3.6 mM NaHCO3, 2.3 mM CaCl2, and 5 mM HEPES) containing 5.6 mM of glucose and approximately 200,000 cells/well were distributed in black 96-well plates. Increasing concentrations of the indicated compound were added to the cells and fluorescence intensity (excitation at 480 nm, emission at 530 nm) was measured at 18-s intervals during 250 s using a PHERAstar FSX (BMG Labtech). The net change in intracellular Ca^2+ concentration was expressed as F − F0 where F is the fluorescence at a given concentration of ligand and F0 is the average of the baseline values (fluorescence values of buffer-treated wells).

The target of the next data set is T1, P-gp (Homo sapiens, UniProt P08183).
T1 construct: host or cells: Caco-2
Kind of data set: P-glycoprotein (P-gp) substrate assay in Caco-2 cells with and without verapamil. The conditions noted are these: Caco-2, efflux ratio with/without verapamil. In kind it is in vitro ADME. As to the method: These experiments were performed by an outside vendor (Eurofins, France). C21 was tested in P-gp substrate assessment assays at 10 µM. The A to B and B to A permeability was measured in Caco-2 cells in the presence and absence of verapamil, a P-gp inhibitor. Efflux ratios (E) were calculated based on the apparent B–A and A–B permeability with and without verapamil. In each experiment, the respective reference compound was tested concurrently with the test compound to assess the assay reliability. Fluorescein was used as the cell monolayer integrity marker. Fluorescein permeability assessment (in the A–B direction at pH 7.4 on both sides) was performed after the permeability assay for the test compound.
(In general: Caco-2 cells form a polarised layer with tight junctions and transporters.)

The subject of data set [2] is mu, kappa, and delta opioid receptors. Description: Binding and enzyme target profile screen (Eurofins). The following applies: competitive binding screen, 10 uM. The protocol:
These experiments were performed by an outside vendor (Eurofins, France). […] In each experiment, the respective reference compound was tested concurrently with the test compound to assess the assay reliability. […] Following incubation, the samples were filtered rapidly under vacuum through glass fiber filters presoaked in a buffer and rinsed several times with an ice-cold buffer using a 48-sample or 96-sample cell harvester. The filters were counted for radioactivity in a scintillation counter using a scintillation cocktail.

The target in data set [3] is T2, hM4Di (Homo sapiens, UniProt P08173, A203G/Y113C).
T2 sequence (P08173 1-479 Y113C/A203G): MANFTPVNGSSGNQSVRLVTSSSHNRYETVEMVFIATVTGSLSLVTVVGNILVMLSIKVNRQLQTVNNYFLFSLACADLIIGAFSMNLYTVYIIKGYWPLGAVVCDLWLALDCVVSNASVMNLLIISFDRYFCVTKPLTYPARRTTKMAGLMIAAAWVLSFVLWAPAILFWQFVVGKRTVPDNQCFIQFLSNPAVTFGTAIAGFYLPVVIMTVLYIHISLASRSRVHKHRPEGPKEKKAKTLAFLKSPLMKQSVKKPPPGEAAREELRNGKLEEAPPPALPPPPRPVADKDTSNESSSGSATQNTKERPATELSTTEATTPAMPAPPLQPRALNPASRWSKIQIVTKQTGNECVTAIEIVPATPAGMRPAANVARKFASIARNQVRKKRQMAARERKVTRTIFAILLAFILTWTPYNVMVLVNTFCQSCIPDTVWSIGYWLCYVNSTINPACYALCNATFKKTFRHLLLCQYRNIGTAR
Description: Autoradiography: direct binding of [3H]clozapine, [3H]C21, [3H]C13 in monkey brain sections expressing hM4Di. Also on record: expressed in transfected cells; host or cells: rhesus monkey (Macaca mulatta) right amygdala, lentivirus-transduced neurons; species or system rhesus monkey (Macaca mulatta); unit not given here. The conditions noted are these: Fig. 1 panel H; [3H]-labelled ligand; individual values; listed as CLZ. The text has this:
Flash frozen tissue (both rodents and the monkey) was sectioned (20 µm) on a cryostat (Leica, Germany) and thaw mounted onto ethanol-washed glass slides. […] Slides were air dried and placed in a Hypercassette™ (Amersham Biosciences) and covered with a BAS-TR2025 Storage Phosphor Screen (FujiFilm, Japan). The slides were exposed to the screen for 5–7 days and imaged using a phosphor imager (Typhoon FLA 7000; GE Healthcare).

Data set [4] deals with T2, hM4Di. Description: [35S]GTPgammaS autoradiography in rat brain sections expressing hM4Di. Also on record: expressed in transfected cells; host or cells: rat right motor cortex, AAV-transduced neurons. Format: biochemical. The conditions noted are these: 10 nM. (In general: GTPγS is a poorly hydrolysed GTP analogue; its binding reports G protein activation.)
Description: Sections were encircled with a hydrophobic membrane using a PAP pen (Sigma-Aldrich). Preincubation buffer was pipetted onto each slide and allowed to incubate for 20 min (50 mM Tris-HCl, 1 mM EDTA, 5 mM MgCl2 and 100 mM NaCl). The preincubation buffer was removed via aspiration and each slide was loaded with GDP in the presence of DPCPX and allowed to incubate of 60 min (Preincubation buffer, 2 mM GDP, 1 μM DPCPX, Millipore water). […] The [^35S]GTPγS cocktail was removed via aspiration and slides were washed in ice-cold washing buffer (50 mM Tris-HCl, 5 mM MgCl2, pH 7.4) for 5 min (2×) followed by a 30 s dip in ice-cold deionized water. Hydrophobic membrane was removed with a cotton swab and xylene and slides were placed into a […] covered by a BAS-SR2040 phosphor screen (FujiFilm; GE Healthcare). The slides were exposed to the phosphor screen for 3-5 days and imaged using a phosphor imager (Typhoon FLA 7000; GE Healthcare).
Another data set has as its system WT mice. Description: [18F]FDG PET metabolic mapping in WT mice. The following applies: 0.1 mg/kg. Format: in vivo, mouse. As to the method: Mice (D1-hM3Dq, D1-hM4Di or WT littermates, see above) were habituated to experimenter handling and fasted 16 h before the experiment. On the day of the experiment, mice received an IP injection of vehicle (1 ml kg^−1) and were placed back into their home cages. Ten minutes later, mice were injected (IP) with 11 MBq of 2-deoxy-2-[^18F]fluoro-D-glucose (FDG, Cardinal Health) and placed back into their home cages. After 30 min, mice were anesthetized with 1.5% isoflurane, placed on a custom-made bed of a nanoScan small animal PET/CT scanner (Mediso Medical Imaging Systems) and scanned for 20 min on a static acquisition protocol, followed by a CT scan. […] Voxel-based repeated measures with Student’s t test comparing baseline to drug were performed, and the resulting parametric images were filtered for statistically significant (p < 0.05) clusters larger than 100 contiguous voxels. All statistical parametric mapping analyses were performed using Matlab R2016 (Mathworks) and SPM12 (University College London).

Where “and” joins values, the source holds several entries; their conditions need not be identical. Equal entries are not always repeated.

T1 sequence (P08183 whole entry): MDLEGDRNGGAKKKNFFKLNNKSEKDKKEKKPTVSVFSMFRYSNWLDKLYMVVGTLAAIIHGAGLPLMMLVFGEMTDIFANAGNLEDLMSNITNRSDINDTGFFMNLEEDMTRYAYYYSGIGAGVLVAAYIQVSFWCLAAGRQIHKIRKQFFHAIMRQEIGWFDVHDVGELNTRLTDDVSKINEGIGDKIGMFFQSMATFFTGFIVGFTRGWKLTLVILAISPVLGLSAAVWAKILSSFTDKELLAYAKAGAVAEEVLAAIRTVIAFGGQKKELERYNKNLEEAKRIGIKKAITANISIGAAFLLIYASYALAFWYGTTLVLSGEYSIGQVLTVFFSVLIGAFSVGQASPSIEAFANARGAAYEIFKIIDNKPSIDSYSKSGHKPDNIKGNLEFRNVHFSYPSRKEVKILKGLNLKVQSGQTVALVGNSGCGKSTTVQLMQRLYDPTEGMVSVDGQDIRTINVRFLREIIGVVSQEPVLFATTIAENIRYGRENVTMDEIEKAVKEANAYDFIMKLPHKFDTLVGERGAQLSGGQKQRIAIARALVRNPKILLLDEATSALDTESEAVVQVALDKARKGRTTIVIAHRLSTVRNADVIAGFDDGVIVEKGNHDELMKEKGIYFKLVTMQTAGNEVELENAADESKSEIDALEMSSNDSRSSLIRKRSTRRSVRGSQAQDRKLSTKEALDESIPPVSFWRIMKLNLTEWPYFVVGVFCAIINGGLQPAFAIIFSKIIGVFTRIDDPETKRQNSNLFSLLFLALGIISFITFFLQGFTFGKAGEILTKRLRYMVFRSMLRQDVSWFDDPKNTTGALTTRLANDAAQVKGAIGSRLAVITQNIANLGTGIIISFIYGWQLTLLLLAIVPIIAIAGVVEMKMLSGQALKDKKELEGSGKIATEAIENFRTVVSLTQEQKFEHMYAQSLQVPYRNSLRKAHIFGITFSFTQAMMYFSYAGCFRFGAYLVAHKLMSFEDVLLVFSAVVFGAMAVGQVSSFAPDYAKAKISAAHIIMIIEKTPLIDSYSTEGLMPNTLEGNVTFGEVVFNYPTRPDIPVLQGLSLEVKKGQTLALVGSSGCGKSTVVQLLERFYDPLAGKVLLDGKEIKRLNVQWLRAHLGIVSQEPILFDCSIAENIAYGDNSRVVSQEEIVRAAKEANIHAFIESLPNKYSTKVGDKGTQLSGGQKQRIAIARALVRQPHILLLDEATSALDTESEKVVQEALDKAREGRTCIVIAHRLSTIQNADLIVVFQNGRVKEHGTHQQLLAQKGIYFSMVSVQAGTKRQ

Turning to `CN1CCN(C2=Nc3cc(Cl)ccc3Nc3ccccc32)CC1` [clozapine], in data set [1], the “functional response in HEK-293 cells lacking DREADDs” value is “Neither clozapine nor C21 produced detectable functional responses”. In addition, in data set [1] (HEK-293 cells), the “functional response, BRET (Go-alpha-Rluc8, beta1, gamma2-mVenus), no DREADD” value was “did not show any functional response” and the “functional response, GCaMP6f, no DREADD” value was “did not show any functional response”. The P-gp substrate entry on P-gp is “none of these compounds is a substrate for P-gp”. In addition, the “binding to opioid receptors” value in data set [2] was “does not”. At hM4Di [3], the “tritiated ligand binding in brain tissue, CPu” value was 109.018 and 115.173 and 108.688 and 86.4656 and 88.6824 and 91.973; the “tritiated ligand binding in brain tissue, CTX” value was 88.2005 and 122.029 and 119.221 and 97.205 and 89.8389 and 100.22; the “tritiated ligand binding in brain tissue, hM4Di” value is 176.387 and 144.183 and 141.333 and 201.955 and 168.154 and 164.257. For the same molecule, the “hM4Di activation measured as [35S]GTPgammaS binding” value at hM4Di [4] is “induces significantly greater hM4Di activation”. The “brain metabolic activity ([18F]FDG)” value in the data set on WT mice is recorded as “did not produce any significant changes in brain glucose metabolism”. For the same molecule, the “brain metabolic activity ([18F]FDG)” value in the data set with WT mice (listed as CLZ) was “did not show any significant changes in brain metabolic activity”.
